Data taken from patent US7604939B2, “Methods of identifying active BRM expression-promoting HDAC inhibitors” (The Regents of the University of Michigan, priority 2005, dated 2009).
Read-outs that look alike come from different tables or passages of the source. Where a SMILES comes first, the peptide text is derived from it. [ ]: non-standard residue; d: D form. Aoe = N[C@@H](CCCCCC(=O)[C@@H]1CO1)C(=O)O

Tests used:
p16 expression = p16 expression by semi-quantitative RT-PCR in control cell lines; type: cell-based, human; conditions: 5uM on three consecutive days; H23 and H441 cell lines
HDAC4 = HDAC4 (Homo sapiens, UniProt P56524); conditions: Class 2 HDAC; cited from earlier work
HDAC3 = HDAC3 (Homo sapiens, UniProt O15379); conditions: cited from earlier work; for IC50: read-out: IC50 HDAC3
HDAC6 = molecular target: T1, HDAC6 (Homo sapiens, UniProt Q9UBN7); conditions: Class 2 HDAC; cited from earlier work
T1 sequence (Q9UBN7 1-1215): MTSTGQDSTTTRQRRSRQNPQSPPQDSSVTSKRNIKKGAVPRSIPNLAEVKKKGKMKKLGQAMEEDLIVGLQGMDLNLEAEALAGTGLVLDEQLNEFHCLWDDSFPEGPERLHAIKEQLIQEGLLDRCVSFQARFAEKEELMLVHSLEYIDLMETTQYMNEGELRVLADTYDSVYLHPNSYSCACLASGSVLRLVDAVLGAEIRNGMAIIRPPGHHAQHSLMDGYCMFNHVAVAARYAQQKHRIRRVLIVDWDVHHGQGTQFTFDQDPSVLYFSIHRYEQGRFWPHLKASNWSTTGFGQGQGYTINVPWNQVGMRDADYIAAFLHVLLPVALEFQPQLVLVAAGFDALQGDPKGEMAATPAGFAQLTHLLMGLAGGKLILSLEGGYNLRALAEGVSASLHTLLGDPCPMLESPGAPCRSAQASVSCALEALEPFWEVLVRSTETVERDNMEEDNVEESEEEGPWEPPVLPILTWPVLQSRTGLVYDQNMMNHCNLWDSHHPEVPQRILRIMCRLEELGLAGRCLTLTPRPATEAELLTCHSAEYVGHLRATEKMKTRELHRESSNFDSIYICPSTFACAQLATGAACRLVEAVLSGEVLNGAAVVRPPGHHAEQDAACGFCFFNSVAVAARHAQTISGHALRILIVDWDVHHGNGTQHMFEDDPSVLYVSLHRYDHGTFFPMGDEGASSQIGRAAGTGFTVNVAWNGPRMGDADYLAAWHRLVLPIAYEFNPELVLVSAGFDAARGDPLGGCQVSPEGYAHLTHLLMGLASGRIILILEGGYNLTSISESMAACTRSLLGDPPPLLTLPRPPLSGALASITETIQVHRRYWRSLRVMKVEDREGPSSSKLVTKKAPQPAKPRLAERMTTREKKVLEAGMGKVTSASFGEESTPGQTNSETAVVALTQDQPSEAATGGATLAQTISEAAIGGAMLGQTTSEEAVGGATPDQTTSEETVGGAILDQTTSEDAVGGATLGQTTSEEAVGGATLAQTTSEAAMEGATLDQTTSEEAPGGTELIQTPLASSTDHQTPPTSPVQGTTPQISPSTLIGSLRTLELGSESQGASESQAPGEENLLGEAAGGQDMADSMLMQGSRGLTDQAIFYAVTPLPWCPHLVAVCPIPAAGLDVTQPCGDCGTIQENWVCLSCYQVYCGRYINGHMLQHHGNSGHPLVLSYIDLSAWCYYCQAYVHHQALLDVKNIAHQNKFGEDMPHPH

HDAC1 = HDAC1 (Homo sapiens, UniProt Q13547); conditions: cited from earlier work; for Sensitivity of HDAC1 to the inhibitor: Class 1 HDAC
H23 and SW13 cell lines = assay: Toxicity to BRG1/BRM-deficient cell lines; type: cell-based, human; conditions: most pronounced in the H23 and SW13 cell lines
HDAC10 = molecular target: T2, HDAC10 (Homo sapiens, UniProt Q969S8); conditions: Class 2 HDAC; cited from earlier work
T2 sequence (Q969S8 1-669): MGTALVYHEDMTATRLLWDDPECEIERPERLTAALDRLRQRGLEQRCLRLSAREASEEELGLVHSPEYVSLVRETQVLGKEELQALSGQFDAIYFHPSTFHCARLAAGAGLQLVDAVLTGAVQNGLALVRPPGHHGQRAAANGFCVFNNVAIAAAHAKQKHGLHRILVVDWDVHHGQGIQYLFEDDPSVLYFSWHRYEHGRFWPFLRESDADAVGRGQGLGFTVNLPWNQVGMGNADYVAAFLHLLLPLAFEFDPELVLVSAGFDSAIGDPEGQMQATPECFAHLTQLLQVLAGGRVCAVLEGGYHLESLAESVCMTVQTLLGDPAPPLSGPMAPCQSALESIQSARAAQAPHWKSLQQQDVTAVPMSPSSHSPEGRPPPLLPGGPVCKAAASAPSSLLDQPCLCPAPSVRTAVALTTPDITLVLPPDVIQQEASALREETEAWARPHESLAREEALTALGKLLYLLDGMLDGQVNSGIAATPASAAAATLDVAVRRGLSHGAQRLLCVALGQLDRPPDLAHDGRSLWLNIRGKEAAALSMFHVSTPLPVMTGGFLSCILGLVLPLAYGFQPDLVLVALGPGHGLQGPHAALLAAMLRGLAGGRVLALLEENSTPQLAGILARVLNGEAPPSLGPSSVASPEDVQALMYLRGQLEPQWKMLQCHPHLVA

HDAC9 = HDAC9 (Homo sapiens, UniProt Q9UKV0); conditions: Class 2 HDAC; cited from earlier work
Class 3 HDACs = conditions: cited from earlier work
HDAC5 = HDAC5 (Homo sapiens, UniProt Q9UQL6); conditions: Class 2 HDAC; cited from earlier work
HDAC8 = molecular target: T3, HDAC8 (Homo sapiens, UniProt Q9BY41); conditions: Class 1 HDAC; cited from earlier work
T3 sequence (Q9BY41 1-377): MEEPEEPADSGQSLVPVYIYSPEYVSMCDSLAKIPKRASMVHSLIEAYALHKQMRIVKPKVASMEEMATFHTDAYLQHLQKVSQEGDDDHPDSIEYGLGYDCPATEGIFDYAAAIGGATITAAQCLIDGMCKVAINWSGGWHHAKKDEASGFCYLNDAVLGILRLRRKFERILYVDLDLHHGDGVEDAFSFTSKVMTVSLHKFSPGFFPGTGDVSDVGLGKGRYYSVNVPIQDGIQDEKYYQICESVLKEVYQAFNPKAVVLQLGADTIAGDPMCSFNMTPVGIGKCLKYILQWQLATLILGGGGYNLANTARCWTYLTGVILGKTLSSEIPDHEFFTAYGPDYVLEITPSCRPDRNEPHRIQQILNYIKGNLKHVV

HDAC2 = HDAC2 (Homo sapiens, UniProt Q92769); conditions: Class 1 HDAC; cited from earlier work
BRM expression [1] = assay: BRM mRNA (RT-PCR) and protein (western blotting) expression in BRG1/BRM-deficient cell lines after treatment
From the text: This example describes the treatment of cells lines with undetectable BRG1 and BRM protein expression with various HDAC inhibitors or 5-aza-deoxycytidine (5-azaCdR). […] This upregulation effect was also examined in the six other BRG1/BRM-deficient cell lines, using RT-PCR.

BRM expression [2] = assay: Time course of BRM expression in SW13 cells with butyrate and after its removal; type: cell-based, human
Procedure: Cells were treated daily with sodium butyrate (5 mM). Total protein was extracted at 4, 12, 24, 36, […], and 72 hours after the first dosage. Upregulation of BRM with butyrate treatment was detected after 12 hours and reached a plateau between 24 and 48 hours. GAPDH was the loading control. […] Cells were treated with sodium butyrate at a final concentration of 5 mM for three consecutive days. On the fourth day, the medium was changed and cells were harvested at various time points for protein detection. BRM protein levels declined and returned to baseline after 4-5 days. (NaBut=sodium butyrate, un=untreated).
This Example describes an analysis of the temporal effects of HDAC inhibitors on BRM re-expression. In partciular, to understand how HDAC inhibitors affected BRM expression, the time course at which BRM expression in SW13 cells was induced by continued exposure to butyrate was determined. The upregulation of BRM expression was detected by western blot analysis at 12 hours and reached a plateau at 24 hours. Little change in BRM expression occurred with continued treatment for an additional 48 hours (FIG. 3A). This process was reversible, as BRM expression returned to pretreatment levels after removal of sodium butyrate. To further characterize this effect, SW13 cells were treated with butyrate for 72 hours, sodium butyrate was removed, and BRM levels were measured by western blotting from 0 to 6 days. The BRM protein levels remained elevated for 72 hours and returned to near baseline levels at 96 hours (FIG. 3B). In parallel with BRM protein, the BRM mRNA level determined by quantative RT-PCR, also remained elevated for 3 days, returning to baseline level by 4 days. These findings indicate the changes in BRM protein levels paralleled the changes in the BRM mRNA levels.

[3] = SW13, continued exposure, 5 mM daily (FIG. 3A)
[4] = SW13, treated 72 hours, then removed
[5] = SW13, treated 72 hours, then removed (FIG. 3B)

HDAC1, sequence (Q13547 whole entry): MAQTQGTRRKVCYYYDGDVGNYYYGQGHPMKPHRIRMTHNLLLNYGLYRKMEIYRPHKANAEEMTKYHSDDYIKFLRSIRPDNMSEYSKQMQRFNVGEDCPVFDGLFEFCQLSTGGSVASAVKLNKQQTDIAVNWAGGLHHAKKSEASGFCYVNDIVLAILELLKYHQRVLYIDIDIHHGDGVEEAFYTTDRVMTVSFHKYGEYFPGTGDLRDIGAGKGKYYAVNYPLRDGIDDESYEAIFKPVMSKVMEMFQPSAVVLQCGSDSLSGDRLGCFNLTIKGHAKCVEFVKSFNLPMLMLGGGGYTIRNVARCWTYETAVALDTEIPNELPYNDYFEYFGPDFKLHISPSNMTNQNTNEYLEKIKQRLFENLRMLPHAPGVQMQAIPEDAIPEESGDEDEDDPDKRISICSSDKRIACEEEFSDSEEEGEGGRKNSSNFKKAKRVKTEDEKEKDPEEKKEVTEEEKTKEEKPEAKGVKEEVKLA
HDAC3, sequence (O15379 whole entry): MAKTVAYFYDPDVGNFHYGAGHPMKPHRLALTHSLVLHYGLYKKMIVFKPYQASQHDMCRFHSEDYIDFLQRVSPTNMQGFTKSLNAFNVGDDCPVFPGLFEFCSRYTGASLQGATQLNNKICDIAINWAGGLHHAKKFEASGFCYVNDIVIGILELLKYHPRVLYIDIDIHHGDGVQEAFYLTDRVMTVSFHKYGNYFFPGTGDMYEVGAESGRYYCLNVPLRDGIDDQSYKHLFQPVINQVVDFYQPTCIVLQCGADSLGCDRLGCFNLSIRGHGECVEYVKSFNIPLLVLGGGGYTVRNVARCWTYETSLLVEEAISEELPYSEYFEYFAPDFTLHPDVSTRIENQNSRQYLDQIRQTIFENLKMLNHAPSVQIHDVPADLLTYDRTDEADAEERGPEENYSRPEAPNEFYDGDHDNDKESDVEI
HDAC3, sequence (Q9Y618 395-489 partner limits assumed): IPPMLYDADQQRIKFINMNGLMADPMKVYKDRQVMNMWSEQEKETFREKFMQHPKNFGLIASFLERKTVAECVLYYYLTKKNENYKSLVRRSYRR
HDAC4, sequence (P56524 whole entry): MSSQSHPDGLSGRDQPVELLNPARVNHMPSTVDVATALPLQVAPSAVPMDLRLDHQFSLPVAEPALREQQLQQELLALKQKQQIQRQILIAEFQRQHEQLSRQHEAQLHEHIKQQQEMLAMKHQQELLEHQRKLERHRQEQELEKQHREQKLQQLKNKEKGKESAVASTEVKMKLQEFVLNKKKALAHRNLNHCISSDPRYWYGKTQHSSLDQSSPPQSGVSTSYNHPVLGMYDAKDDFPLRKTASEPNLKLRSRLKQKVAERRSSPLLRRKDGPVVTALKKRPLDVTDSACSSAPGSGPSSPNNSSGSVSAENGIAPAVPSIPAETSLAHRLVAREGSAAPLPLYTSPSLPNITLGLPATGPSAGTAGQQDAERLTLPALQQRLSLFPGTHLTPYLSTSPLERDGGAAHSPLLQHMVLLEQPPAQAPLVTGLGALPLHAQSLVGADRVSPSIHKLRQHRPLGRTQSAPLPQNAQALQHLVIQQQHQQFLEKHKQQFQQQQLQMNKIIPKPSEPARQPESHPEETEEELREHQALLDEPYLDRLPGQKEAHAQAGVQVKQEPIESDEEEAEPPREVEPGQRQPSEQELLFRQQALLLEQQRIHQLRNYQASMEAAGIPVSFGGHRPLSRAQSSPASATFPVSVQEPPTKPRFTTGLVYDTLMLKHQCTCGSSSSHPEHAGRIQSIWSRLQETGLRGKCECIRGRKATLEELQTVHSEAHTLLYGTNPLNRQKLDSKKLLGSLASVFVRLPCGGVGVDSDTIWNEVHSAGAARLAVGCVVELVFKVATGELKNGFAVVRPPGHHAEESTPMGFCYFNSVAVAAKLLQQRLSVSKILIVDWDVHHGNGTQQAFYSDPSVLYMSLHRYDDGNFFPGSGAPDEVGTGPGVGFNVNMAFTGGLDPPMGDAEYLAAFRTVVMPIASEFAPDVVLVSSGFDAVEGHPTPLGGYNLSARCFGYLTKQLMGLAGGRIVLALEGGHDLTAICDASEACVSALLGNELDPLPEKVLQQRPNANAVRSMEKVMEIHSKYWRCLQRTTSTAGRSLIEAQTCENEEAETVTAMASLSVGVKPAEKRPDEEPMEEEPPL
HDAC5, sequence (Q9UQL6 whole entry): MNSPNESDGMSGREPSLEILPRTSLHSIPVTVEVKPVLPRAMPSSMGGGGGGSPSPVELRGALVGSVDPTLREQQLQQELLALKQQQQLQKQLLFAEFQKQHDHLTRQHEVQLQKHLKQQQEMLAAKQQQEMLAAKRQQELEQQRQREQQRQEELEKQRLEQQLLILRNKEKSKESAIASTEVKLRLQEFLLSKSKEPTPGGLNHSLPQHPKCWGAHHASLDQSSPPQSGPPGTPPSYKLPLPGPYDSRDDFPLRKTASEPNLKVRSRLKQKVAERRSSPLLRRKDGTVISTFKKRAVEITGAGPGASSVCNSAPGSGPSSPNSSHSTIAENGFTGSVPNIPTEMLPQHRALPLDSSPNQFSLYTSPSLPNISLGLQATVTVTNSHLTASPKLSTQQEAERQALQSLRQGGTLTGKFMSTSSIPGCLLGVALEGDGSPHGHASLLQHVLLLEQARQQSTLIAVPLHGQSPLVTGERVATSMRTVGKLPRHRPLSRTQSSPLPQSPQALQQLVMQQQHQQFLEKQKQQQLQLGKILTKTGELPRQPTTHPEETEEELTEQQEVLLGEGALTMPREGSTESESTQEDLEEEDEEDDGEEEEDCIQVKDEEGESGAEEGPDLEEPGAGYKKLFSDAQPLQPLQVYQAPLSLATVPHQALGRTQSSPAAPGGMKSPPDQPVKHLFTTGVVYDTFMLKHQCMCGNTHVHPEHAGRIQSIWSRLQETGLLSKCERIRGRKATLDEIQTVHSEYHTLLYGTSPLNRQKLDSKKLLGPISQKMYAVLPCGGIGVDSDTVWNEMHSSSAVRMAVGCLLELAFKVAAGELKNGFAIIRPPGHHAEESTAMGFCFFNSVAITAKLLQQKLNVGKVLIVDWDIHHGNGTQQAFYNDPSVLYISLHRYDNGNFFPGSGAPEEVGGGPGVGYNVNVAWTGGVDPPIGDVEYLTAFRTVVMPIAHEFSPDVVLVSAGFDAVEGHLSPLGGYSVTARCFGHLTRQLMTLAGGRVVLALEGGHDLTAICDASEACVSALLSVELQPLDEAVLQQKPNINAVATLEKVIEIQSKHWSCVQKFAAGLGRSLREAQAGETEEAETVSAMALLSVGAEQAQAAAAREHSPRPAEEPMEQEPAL
HDAC9, sequence (Q9UKV0 whole entry): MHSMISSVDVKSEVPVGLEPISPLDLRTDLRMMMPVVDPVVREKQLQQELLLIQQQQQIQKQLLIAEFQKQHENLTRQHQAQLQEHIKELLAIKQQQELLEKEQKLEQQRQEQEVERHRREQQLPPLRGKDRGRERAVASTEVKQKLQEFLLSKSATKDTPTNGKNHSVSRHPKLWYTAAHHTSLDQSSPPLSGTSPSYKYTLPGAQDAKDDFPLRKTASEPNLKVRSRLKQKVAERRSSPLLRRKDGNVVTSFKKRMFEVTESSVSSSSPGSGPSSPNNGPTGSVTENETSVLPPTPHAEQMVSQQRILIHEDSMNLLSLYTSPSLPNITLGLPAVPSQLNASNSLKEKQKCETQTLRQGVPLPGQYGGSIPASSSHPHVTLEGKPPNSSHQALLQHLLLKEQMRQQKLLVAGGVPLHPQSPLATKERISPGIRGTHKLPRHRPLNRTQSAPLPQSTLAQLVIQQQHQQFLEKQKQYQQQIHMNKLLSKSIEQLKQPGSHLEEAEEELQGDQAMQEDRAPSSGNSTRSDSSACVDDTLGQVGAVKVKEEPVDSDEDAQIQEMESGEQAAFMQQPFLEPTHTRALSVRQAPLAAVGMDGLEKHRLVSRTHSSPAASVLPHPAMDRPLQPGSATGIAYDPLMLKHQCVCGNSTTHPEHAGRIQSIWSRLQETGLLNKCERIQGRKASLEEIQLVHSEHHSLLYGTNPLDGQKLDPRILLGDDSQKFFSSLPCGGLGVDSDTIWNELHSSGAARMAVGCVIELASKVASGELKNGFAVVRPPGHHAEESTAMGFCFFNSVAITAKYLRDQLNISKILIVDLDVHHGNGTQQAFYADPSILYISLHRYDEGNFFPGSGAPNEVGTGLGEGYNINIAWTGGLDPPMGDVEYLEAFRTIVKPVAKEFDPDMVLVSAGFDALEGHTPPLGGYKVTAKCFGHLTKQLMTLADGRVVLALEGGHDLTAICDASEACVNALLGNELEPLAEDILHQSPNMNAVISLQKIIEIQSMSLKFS
HDAC2, sequence (Q92769 whole entry): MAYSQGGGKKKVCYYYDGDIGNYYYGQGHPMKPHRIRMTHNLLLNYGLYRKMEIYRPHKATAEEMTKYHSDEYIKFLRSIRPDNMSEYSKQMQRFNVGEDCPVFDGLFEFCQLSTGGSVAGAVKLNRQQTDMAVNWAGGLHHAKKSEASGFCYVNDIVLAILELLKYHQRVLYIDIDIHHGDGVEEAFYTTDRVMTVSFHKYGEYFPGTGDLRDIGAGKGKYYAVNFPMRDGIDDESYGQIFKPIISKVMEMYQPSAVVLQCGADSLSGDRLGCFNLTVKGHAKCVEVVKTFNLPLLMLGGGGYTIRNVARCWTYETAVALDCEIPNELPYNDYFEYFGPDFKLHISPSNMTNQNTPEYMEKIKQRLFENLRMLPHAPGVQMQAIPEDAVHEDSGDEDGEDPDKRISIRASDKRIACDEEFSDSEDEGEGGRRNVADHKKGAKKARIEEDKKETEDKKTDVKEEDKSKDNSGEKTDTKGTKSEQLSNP

Nc1ncn([C@H]2C[C@H](O)[C@@H](CO)O2)c(=O)n1 [5azaCytD, 5-aza-deoxycytidine]
Silencing of p16, semi-quantitative RT-PCR (p16 expression): reversed

C/C=C1\NC(=O)[C@H]2CSSCC/C=C/[C@H](CC(=O)N[C@H](C(C)C)C(=O)N2)OC(=O)[C@H](C(C)C)NC1=O [FR901228]
Sensitivity of HDAC4 to the inhibitor (HDAC4): weak | Sensitivity of HDAC3 to the inhibitor (HDAC3; Class 1 HDAC): Yes | Sensitivity of HDAC6 to the inhibitor (HDAC6): weak | Sensitivity of HDAC1 to the inhibitor (HDAC1): Yes

Nc1ccccc1NC(=O)c1ccc(CNC(=O)OCc2cccnc2)cc1 [MS-275]
Toxicity to cell lines compared to butyrate (H23 and SW13 cell lines): increased toxicity

O=C1N[C@@H](Cc2ccccc2)C(=O)N2CCC[C@@H]2C(=O)N[C@@H](CCCCCC(=O)[C@@H]2CO2)C(=O)N[C@H]1Cc1ccccc1 [Trapoxin] (cyclo(FF[dP][Aoe]))
Sensitivity of HDAC3 to the inhibitor (HDAC3; Class 1 HDAC): Yes | IC50 (HDAC3): ~0.1 µM | Sensitivity of HDAC6 to the inhibitor (HDAC6): No | Sensitivity of HDAC10 to the inhibitor (HDAC10): No

CC(/C=C/C(=O)NO)=C\[C@@H](C)C(=O)c1ccc(N(C)C)cc1 [Trichostatin A, trichostatin A]
Sensitivity of HDAC9 to the inhibitor (HDAC9): Yes | Sensitivity of Class 3 HDACs to the inhibitor (Class 3 HDACs): Resistance | Sensitivity of HDAC4 to the inhibitor (HDAC4): Yes | Sensitivity of HDAC6 to the inhibitor (HDAC6): Yes | Sensitivity of HDAC1 to the inhibitor (HDAC1): Yes | Sensitivity of HDAC10 to the inhibitor (HDAC10): Yes | Sensitivity of HDAC5 to the inhibitor (HDAC5): Yes | Sensitivity of HDAC8 to the inhibitor (HDAC8): Yes

CCCC(CCC)C(=O)O [Valpoic Acid, valproic acid]
Sensitivity of HDAC2 to the inhibitor (HDAC2): yes | Sensitivity of HDAC1 to the inhibitor (HDAC1): yes

CCCC(=O)[O-].[Na+] [sodium butyrate]
Induction of BRM, RT-PCR (BRM expression [1]; Panc-1 and H513 cell lines, butyrate treatment): failed to demonstrate an appreciable induction | Number of the ten BRG1/BRM-deficient cell lines showing BRM transcript re-expression, RT-PCR (BRM expression [1]; after butyrate treatment, of ten cell lines): eight | Upregulation of BRM, cyber-green quantitation PCR (BRM expression [1]; butyrate treatment, responding BRG1/BRM-deficient cell lines): 8-20 fold | Time at which BRM protein levels returned to baseline after medium change (BRM expression [2]; 5 mM for three consecutive days, medium changed on fourth day (FIG. 3B)): 4 to 5 days | Change in BRM expression with continued treatment for an additional 48 hours (BRM expression [2]; SW13, after plateau (FIG. 3A)): Little change | Time at which BRM protein expression reached a plateau, western blot (BRM expression [2]; [3]): 24 h | Time at which upregulation of BRM protein was detected, western blot (BRM expression [2]; [3]): 12 h | Time BRM mRNA level remained elevated after removal, quantitative RT-PCR (BRM expression [2]; [4]): 3 days | Time at which BRM mRNA returned to baseline after removal, quantitative RT-PCR (BRM expression [2]; [4]): ≤ 4 days | Time BRM protein levels remained elevated after removal (BRM expression [2]; [5]): 72 h | Time at which BRM protein returned to near baseline after removal (BRM expression [2]; [5]): 96 h | Sensitivity of Class 3 HDACs to the inhibitor (Class 3 HDACs): Resistance | Sensitivity of HDAC3 to the inhibitor (HDAC3): Yes | IC50 (HDAC3): ~300 µM | Sensitivity of HDAC6 to the inhibitor (HDAC6): No | Sensitivity of HDAC1 to the inhibitor (HDAC1): Yes | IC50 (HDAC1): ~300 µM | Sensitivity of HDAC10 to the inhibitor (HDAC10): No | Sensitivity of HDAC8 to the inhibitor (HDAC8): Yes
